Results as given in ChEMBL document CHEMBL5727860, “Bicyclic heteroaryl substituted compounds” (2020).

Biological target: T1, Proteinase-activated receptor 4 (Homo sapiens, UniProt Q96RI0)
T1 sequence (Q96RI0 whole entry): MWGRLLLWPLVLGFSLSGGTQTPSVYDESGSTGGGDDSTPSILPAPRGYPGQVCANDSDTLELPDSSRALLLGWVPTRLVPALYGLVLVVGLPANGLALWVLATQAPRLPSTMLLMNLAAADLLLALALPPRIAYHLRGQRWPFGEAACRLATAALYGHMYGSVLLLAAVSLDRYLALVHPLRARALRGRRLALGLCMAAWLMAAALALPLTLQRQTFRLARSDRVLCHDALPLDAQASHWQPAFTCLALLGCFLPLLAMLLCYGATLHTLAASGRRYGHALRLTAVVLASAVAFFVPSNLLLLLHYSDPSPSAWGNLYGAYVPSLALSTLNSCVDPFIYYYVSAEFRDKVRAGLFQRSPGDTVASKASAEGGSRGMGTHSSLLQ
Assay: FLIPR Assay in PAR4-Expressing HEK293 Cells: FLIPR-based calcium mobilization assay in HEK293 cells was used to measure PAR4 antagonism agonism, and selectivity against PAR1. The activity of the PAR4 antagonists of the present invention were tested in PAR4 expressing cells by monitoring H-Ala-Phe(4-F)-[…]NH2-induced intracellular calcium mobilization. Counter screens for agonist activity and PAR1 antagonist activity were also performed. Briefly, PAR/PAR4-expressing HEK293 cells were grown in DMEM (Life Technology, Grand Island, N.Y.) containing 10% heat-inactivated FBS, 1% Penicillin-Streptomycin, 10 μg/mL blasticidin, and 100 μg/mL Zeocin at 37° C. with 5% CO2. Cells were plated overnight prior to the experiment in a black 384-well Purecoat Amine clear bottom plate (Becton Dickinson Biosciences, San Jose, Calif.) at 10,000 cells/well in 30 μL growth medium and incubated in a humidified chamber at 37° C. with 5% CO2 overnight. Prior to compound addition, the cell medium was replaced with 40 μL of 1× calcium and magnesium-containing Hank's Balanced Saline Solution (HBSS) (with 20 mM HEPES) and 1:1000 diluted fluorescent calcium indicator (Codex Biosolutions, Gaithersburg, Md.). […]

Row | Compound | IC50 [nM]
1 | COc1ccc(NC(=O)O[C@H]2CCNC[C@H]2Oc2cc3sc(-c4cc(C)cc5nc(OC)cnc45)nc3cc2F)cn1 (racemic) | 980
2 | COc1cnc2c(-c3nc4cc(F)c(O[C@@H]5CC(F)(F)C[C@@H]5OC(=O)Nc5cnc(OCCO)nc5)cc4s3)cc(C)cc2c1 (relative stereo) | 20
